Test results reported in article PMC10222209 (Pharmaceuticals, 2023).
“Also recorded” adds a separate entry of the source. Where two headings read alike, the source gives them in different places.

Tests used:
22RV1 cells = assay: Antiproliferative assay (resazurin, 72 h) in 22RV1 cells; type: cell-based; conditions: for inhibition at 1 µM / IC50: Homo sapiens; for antiproliferative activity, in words: enzalutamide-resistant cell lines LNCaP95 and 22RV1, SAR statements
Description: (§1) 22Rv1 cells were obtained from ATCC. LNCaP95 cells were provided by Dr. Yan Dong’s laboratory (Tulane University School of Medicine). LNCaP95 cells were maintained in an RPMI1640 medium with charcoal-stripped serum (CSS). 22Rv1 cells were maintained in an RPMI1640 medium with 10% FBS. Cells were seeded in 96-well plates (5 × 10^3 cells/well) containing a 50 μL growth medium for 24 h. After medium removal, a 100 μL fresh medium containing individual compounds at different concentrations was added to each well and incubated at 37 °C for 72 h. Then, 20 μL of resazurin was added for 2 h before recording fluorescence at 560 nm (excitation) and 590 nm (emission) using a Victor microtiter plate fluorometer (Perkin-Elmer, Waltham, MA, USA).

LNCaP95 cells = assay: Antiproliferative assay (resazurin, 72 h) in LNCaP95 cells; type: cell-based
Description: as §1

AR-full length (AR-FL) = biological target: T1, AR-full length (AR-FL) (Homo sapiens, UniProt P10275, T878A); assay: AR downregulation in LNCaP95 cells (automated Western, Wes); conditions: for downregulating the AR-FL, in words: LNCaP95; for DC50: read-out: AR Downregulation IC50, LNCaP95, 24 h treatment
T1 sequence (P10275 1-920 T878A): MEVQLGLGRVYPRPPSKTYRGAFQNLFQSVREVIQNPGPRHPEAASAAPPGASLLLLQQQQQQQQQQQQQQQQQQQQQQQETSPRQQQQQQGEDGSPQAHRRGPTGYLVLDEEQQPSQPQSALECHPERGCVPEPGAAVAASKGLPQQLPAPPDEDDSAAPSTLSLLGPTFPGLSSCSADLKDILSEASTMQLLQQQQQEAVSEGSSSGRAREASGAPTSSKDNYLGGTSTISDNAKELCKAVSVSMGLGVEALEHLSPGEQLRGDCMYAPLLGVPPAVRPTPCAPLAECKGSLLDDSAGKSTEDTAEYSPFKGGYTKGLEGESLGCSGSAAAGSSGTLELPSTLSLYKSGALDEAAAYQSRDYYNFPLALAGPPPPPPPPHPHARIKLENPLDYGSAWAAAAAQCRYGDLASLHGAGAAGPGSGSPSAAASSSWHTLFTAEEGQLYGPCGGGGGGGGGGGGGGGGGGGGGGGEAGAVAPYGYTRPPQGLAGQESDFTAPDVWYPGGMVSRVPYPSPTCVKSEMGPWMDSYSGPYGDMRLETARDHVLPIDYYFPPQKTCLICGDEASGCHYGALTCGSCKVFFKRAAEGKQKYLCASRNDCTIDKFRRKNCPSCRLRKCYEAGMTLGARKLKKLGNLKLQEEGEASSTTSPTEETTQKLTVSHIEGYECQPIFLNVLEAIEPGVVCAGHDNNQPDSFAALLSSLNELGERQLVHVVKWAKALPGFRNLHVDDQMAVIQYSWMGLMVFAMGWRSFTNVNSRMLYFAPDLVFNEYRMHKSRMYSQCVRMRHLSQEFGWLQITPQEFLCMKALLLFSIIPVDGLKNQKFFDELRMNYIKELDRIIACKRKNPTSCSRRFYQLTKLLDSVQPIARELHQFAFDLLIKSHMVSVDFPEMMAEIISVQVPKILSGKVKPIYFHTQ
Description: (§2) Total AR and AR-V7 protein levels were determined using automated Western blotting (Wes Simple Western Analysis, ProteinSimple, San Jose, CA, USA). WES analyses were performed following the WES user manual. Briefly, LNCaP95 and 22RV1 cells were plated in a 12-well plate at a density of 2.5 × 10^5 cells per well. […] Samples were mixed with a master mix (ProteinSimple, San Jose, CA, USA) to give a final concentration of 0.2 mg/mL total protein, 1 × sample buffer, 1 × fluorescent molecular weight markers, and 40 mM DTT. Samples were heated at 95 °C for 5 min followed by centrifugation. Samples, blocking solution, primary antibodies, horseradish peroxidase-conjugated secondary antibodies, chemiluminescent substrate, and separation and stacking matrices were loaded into designated wells in a 384 well plate. After plate loading, fully automated electrophoresis and immunodetection took place in the capillary system. Proteins were separated by molecular weight at 375 V for 25 min, and primary and secondary antibodies were incubated for 30 min. The AR (Santa Cruz, Santa Cruz, CA, USA), AR-V7 (Santa Cruz, Santa Cruz, CA, USA), and actin (Novus, cat #NB600-503) antibodies were diluted in a proprietary antibody diluent at a 1:50 dilution ratio. Chemiluminescence was captured by a charge-coupled device camera, and the digital image was analyzed using Compass software 6.2.0 (ProteinSimple). The amount of each protein, relative to total protein content, was calculated based on peak areas. Total AR and AR-V7 levels were normalized to actin.

AR-V7 [1] = biological target: T2, AR-V7 (Homo sapiens, UniProt P10275); assay: AR-V7 downregulation in 22RV1 cells (automated Western, Wes); conditions: read-out: AR-V7 Downregulation IC50; 22RV1, 24 h treatment
T2 sequence (P10275 1-644 isoform P10275-3): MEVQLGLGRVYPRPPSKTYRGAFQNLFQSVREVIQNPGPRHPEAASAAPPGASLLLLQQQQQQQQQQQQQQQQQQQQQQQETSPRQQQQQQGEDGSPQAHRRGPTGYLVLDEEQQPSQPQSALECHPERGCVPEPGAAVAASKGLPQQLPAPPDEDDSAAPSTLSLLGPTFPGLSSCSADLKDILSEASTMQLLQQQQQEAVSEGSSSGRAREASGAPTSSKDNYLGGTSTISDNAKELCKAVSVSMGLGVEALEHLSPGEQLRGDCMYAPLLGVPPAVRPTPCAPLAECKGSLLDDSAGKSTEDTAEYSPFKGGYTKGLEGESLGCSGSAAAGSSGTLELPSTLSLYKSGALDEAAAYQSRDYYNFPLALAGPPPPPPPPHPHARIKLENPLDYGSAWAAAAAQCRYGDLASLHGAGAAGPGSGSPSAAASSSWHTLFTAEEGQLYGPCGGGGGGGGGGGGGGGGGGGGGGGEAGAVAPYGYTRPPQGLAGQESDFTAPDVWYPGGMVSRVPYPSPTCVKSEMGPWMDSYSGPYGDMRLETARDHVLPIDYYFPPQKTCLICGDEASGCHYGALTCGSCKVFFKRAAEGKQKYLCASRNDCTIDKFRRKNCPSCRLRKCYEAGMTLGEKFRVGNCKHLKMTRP
Description: as §2

AR-V7 [2] = biological target: T2, AR-V7; assay: AR-V7 downregulation in LNCaP95 cells (automated Western, Wes); conditions: for downregulating the AR-V7, in words: LNCaP95; for DC50: read-out: AR-V7 Downregulation IC50, LNCaP95, 24 h treatment
Description: as §2

[3] = 22RV1, 1.0 μM, read-out: Inhibitory Rate 22RV1 @1.0 μM
[4] = antiproliferation, 22RV1, 72 h, mean of three independent experiments, read-out: IC50 (μM) 22RV1
[5] = observed, −log IC50, 22RV1 antiproliferation, read-out: Obs pIC50 (converted)
[6] = LNCaP-95, antiproliferation, LNCaP95, 72 h, mean of three independent experiments, read-out: IC50 (μM) LNCaP95

Row | SMILES | IC50 (22RV1 cells; [4]) | IC50 (22RV1 cells; [5]) | IC50 (LNCaP95 cells; [6]) | downregulating the AR-FL, in words (AR-full length (AR-FL)) | DC50 (AR-full length (AR-FL)) | DC50 (AR-V7 [1]) | downregulating the AR-V7, in words (AR-V7 [2]) | DC50 (AR-V7 [2]) | IC50 (22RV1 cells; 22Rv1, antiproliferation, approximate value, read-out: IC50 in 22RV1 (text)) | IC50 (LNCaP95 cells; LNCaP-95, antiproliferation, approximate value, read-out: IC50 in LNCaP95 (text)) | inhibition at 1 µM (22RV1 cells; [3]) | antiproliferative activity, in words (22RV1 cells) | IC50 (22RV1 cells; 22Rv1, 72 h, read-out: IC50 (μM) 22RV1) | inhibition at 1 µM (22RV1 cells; 22Rv1, read-out: Inhibitory Rate 22RV1 @1.0 μM) | IC50 (22RV1 cells; 22Rv1, read-out: Obs pIC50 (converted)) | IC50 (LNCaP95 cells; LNCaP-95, 72 h, read-out: IC50 (μM) LNCaP95)
1 | O=C(Nc1ccc(C(F)(F)F)c(C(F)(F)F)c1)c1cc(Cl)ccc1O [B1] | 0.258 ± 0.097 µM | 0.258 µM | 0.239 ± 0.072 µM | strong activity | 463 ± 224 nM | 4280 ± 1360 nM | strong activity | 280 ± 117 nM | – | – | 59.2% | equivalent or improved anti-proliferation potency | – | – | – | –
2 | N#Cc1ccc(NC(=O)c2cc(Cl)ccc2O)cc1C(F)(F)F [B3] | – | – | – | strong activity | 781 ± 512 nM | 354 ± 134 nM | strong activity | 850 ± 246 nM | – | – | – | – | 0.695 ± 0.246 µM | 34.9% | 0.695 µM | 0.354 ± 0.066 µM
3 | O=C(Nc1ccc(C(F)(F)F)c(C(F)(F)F)c1)c1cc(F)c(F)cc1O [B14] | 0.382 ± 0.078 µM | 0.382 µM | 0.199 ± 0.055 µM | strong activity | 498 ± 185 nM | > 10000 nM | strong activity | 491 ± 156 nM | – | – | 47.3% | – | – | – | – | –
4 | O=C(Nc1ccc([N+](=O)[O-])cc1Cl)c1cc(Cl)ccc1OS(=O)(=O)C(F)(F)F [C8] | 0.252 ± 0.092 µM | 0.252 µM | 0.196 ± 0.064 µM | – | – | – | – | – | – | – | 59.2% | equivalent or improved anti-proliferation potency; also recorded: slightly improved | – | – | – | –

Further lines, with some results ahead:

Row | IC50 (22RV1 cells; [4]) | IC50 (22RV1 cells; [5]) | IC50 (LNCaP95 cells; [6]) | downregulating the AR-FL, in words (AR-full length (AR-FL)) | DC50 (AR-full length (AR-FL)) | DC50 (AR-V7 [1]) | downregulating the AR-V7, in words (AR-V7 [2]) | DC50 (AR-V7 [2]) | IC50 (22RV1 cells; 22Rv1, antiproliferation, approximate value, read-out: IC50 in 22RV1 (text)) | IC50 (LNCaP95 cells; LNCaP-95, antiproliferation, approximate value, read-out: IC50 in LNCaP95 (text)) | SMILES | inhibition at 1 µM (22RV1 cells; [3]) | antiproliferative activity, in words (22RV1 cells) | IC50 (22RV1 cells; 22Rv1, 72 h, read-out: IC50 (μM) 22RV1) | inhibition at 1 µM (22RV1 cells; 22Rv1, read-out: Inhibitory Rate 22RV1 @1.0 μM) | IC50 (22RV1 cells; 22Rv1, read-out: Obs pIC50 (converted)) | IC50 (LNCaP95 cells; LNCaP-95, 72 h, read-out: IC50 (μM) LNCaP95)
5 | 0.0997 ± 0.0221 µM | 0.0991 µM | 0.13 ± 0.033 µM | strong activity | 551 ± 173 nM | 2860 ± 950 nM | strong activity | 467 ± 204 nM | ~0.1 µM | ~0.1 µM | O=C(Nc1ccc(C(F)(F)F)c(C(F)(F)F)c1)c1cc(F)ccc1O [B9] | 84.3% | equivalent or improved anti-proliferation potency | – | – | – | –
6 | 0.284 ± 0.059 µM | 0.284 µM | 0.372 ± 0.074 µM | – | – | – | – | – | – | – | O=C(Nc1ccc([N+](=O)[O-])cc1Cl)c1cc(Cl)ccc1O [Niclosamide, reference compound] | 55.8% | – | – | – | – | –
